Read-outs that look alike come from different tables or passages of the source.
Tests used:
[1] = Acidity constant (pKa) measurement, Sirius T3 UV-metric, and speciation at pH 7.4; details: for Double negative form (pH = 7.40) / Negative form (pH = 7.40) / Neutral form (pH = 7.40) / αneutral % (fraction of neutral species): from experimental pKa; for αneutral % (fraction of neutral species): pH 7.4; for pKa: phosphate buffer with […] KCl, Sirius T3 titrator, pKa (Acid), experimental, this study
Procedure: Physicochemical properties provide input parameters for the baseline toxicity model. Acidity constants (pK a) and octanol–water partition constants of the neutral species (K ow) were measured with a Sirius T instrument from Pion Inc. (Sussex, UK) (Text S1.2 and Table S1). A detailed description of the pK a and K ow measurements can be found in literature. , […]
S1.2: pKa and log Kow measurements […]
titrator (Pion Inc., Sussex, U.K.). A detailed description of the experimental procedure is available in the literature.1 In brief, each sample was prepared by mixing 5 µL of a 10 mM dimethyl sulfoxide (DMSO) stock solution with 25 µL of a phosphate buffer solution (14.4 mM […]
A reference vial containing 5 µL of DMSO
(Roth, A994-100 ML) and 25 µL of phosphate buffer was analyzed alongside each sample.
The pKa values were determined using the automated UV-metric pKa protocol within the Sirius T3 Control software (version 2.0.0.0.). Each sample was subjected to three consecutive […]
from 2 to 12 by stepwise addition of 0.5 M HCl or 0.5 M potassium hydroxide while recording […]
UV absorbance. […]
To ensure reproducibility, measurements were conducted on at least two

[2] = test system: Mitochondrial Membrane Potential; assay: cells; details: for EC10, linear: linear model; for SR (MMP inhibition): specificity ratio; for Specificity ratio (SRbaseline) SRMMP: against baseline cytotoxicity; for Specificity ratio (SRcytotoxicity) SRMMP: against experimental cytotoxicity; for Relative effect potency REPMMP: relative to BPA
Source text: All bioassay media components and the ERα-UAS-bla GripTite and PPARγ-UAS-bla cells were obtained from Thermo Fisher Scientific (Waltham, MA, USA). AREc32 reporter gene cells based on MCF7 were provided by C. Roland Wolf (Cancer Research UK); AhR CALUX cells (H4L7.5c2 derived from H4IIe) were provided by Michael Denison (UC Davis, USA); and SH-SY5Y cells were purchased from Sigma-Aldrich.
Cell culture conditions and bioassay protocols including response detection are provided in Text S2.1–2.4 and Table S3. − Cell viability was determined from cell confluency using an IncuCyte S3 Live-Cell Analysis System (Sartorius AG, Essen, Germany) before and after exposure, except for SH-SY5Y cells (live–dead staining with Nuclear Green LcS1 and propidium iodide, Abcam, UK). For metabolic activation experiments, cell viability was assessed using the ToxBLAzer DualScreen Kit (Thermo Fisher Scientific) to capture the remaining toxicity in ERα-UAS-bla GripTite after treatment with the aCYP catalyst (details in Text S2.4).
For ARE, the concentration that triggered an induction ratio of 1.5 (ECIR1.5) was used as the benchmark value, as detailed in Text S2.5. IC10 values also served as a threshold for data analysis in all assays; only concentrations below IC10 were considered when deriving EC10 or ECIR1.5. […]
S2: Cell culture and bioassays
S2.1: Cell Culturing Conditions
All suppliers and sources are given in detail in SI-Excel S3. The bioassay media for the different assays were prepared as follows: Assay medium for ER alpha-UAS-bla GripTite (ERα) and […]
2% charcoal-stripped FBS, and 100 U/mL penicillin-streptomycin. MitoOxTox and AhR assay medium was comprised of 90% DMEM with GlutaMAX, supplemented with 10% FBS, and 100 U/mL penicillin-streptomycin. […]
S2.2: Cell Seeding and Incubation. For all bioassays, cell suspensions in the respective assay medium were dispensed into each well of 384-well plates using a MultiFlo Dispenser (Biotek, (now Agilent), Winooski, VT, U.S.). After seeding, the plates were incubated at 37° C and 5% CO₂ for […]. The final cell densities and plate types were as follows: Black poly-D-lysine […]
6500 cells/well, ERα: 5000 cells/well. White 384-well plates with a clear bottom (Product No.
NYC, U.S.) for AhR: 3250 cells/well. Black Collagen I coated plates were used (Product No.
S2.3: Chemical Dosing and Assay Analysis Procedures. The dosing procedure and high-throughput assay workflow have been described in detail before. 9 The dosing concentrations […]
Stock solutions were then either

[3] = target: T1, Peroxisome proliferator-activated receptor γ (Homo sapiens, UniProt P37231); assay: cell-based; details: for EC10, PPARγ (M): 10% of maximum effect of rosiglitazone; for EC10, linear transformed / EC10, linear / logEC10: PPARγ bioassay, dosing range all; for EC10, linear: linear model; for logEC10: log-logistic model; for SR-ScorePPARγ: SR-Score, sigma k=1, x=5; for EC10, PPARγ: effect; for log(1/EC10) PPARγ: input of the ToxPi score, values up to 1.00; for Emax: read-out: Emax%PPARγ; for Specificity ratio (SRbaseline) SRPPARγ: against baseline cytotoxicity; for Specificity ratio (SRcytotoxicity) SRPPARγ: against experimental cytotoxicity
T1 sequence (P37231 238-505 limits assumed): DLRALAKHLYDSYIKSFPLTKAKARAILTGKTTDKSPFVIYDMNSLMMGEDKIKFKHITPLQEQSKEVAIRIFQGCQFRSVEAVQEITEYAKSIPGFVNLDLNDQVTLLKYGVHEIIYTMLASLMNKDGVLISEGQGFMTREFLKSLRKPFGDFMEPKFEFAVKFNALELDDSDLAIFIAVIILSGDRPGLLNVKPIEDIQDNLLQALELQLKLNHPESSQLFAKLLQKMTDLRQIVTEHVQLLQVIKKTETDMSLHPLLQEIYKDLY
In short: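 ERα-UAS-bla GripTite and PPARγ-UAS-bla β-lactamase reporter cells were seeded and held 24 h at 37 °C, 5% CO₂ before dosing. EC10 values used only concentrations below the IC10 from IncuCyte confluency. Emax% is the log-logistic curve maximum relative to the reference chemical's maximum.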

[4] = Arec32, read-out: EC10, MMP (M)
[5] = Arec32, read-out: EC10, linear transformed

Compound: Oc1ccc(Sc2ccc(O)cc2)cc1 [BPT, 4,4'-Thiodiphenol]
- Double negative form (pH = 7.40) [1]: 0.0324%
- Negative form (pH = 7.40) [1]: 4.47%
- Neutral form (pH = 7.40) [1]: 96%
- αneutral % (fraction of neutral species) [1]: 96%
- pKa ([1]; second pKa column): 9.54
- pKa [1]: 8.73
- EC10 ([2]; Arec32, read-out: EC10, MMP): 1.83e-05 M
- EC10 [2, 4]: 1.83e-05 M
- EC10 [2, 5]: 1.82e-05 M
- EC10 ([2]; Arec32, read-out: logEC10): 1.82e-05 M
- EC10, linear ([2]; MMP bioassay, dosing range all): no effect
- SR (MMP inhibition) [2]: > 10
- EC10, PPARγ (M) [3]: 9.61 × 10^–7 M
- EC10, linear transformed [3]: 9.61E-07
- EC10, linear [3]: 1.48E-06
- logEC10 [3]: -6.02
- SR-ScorePPARγ [3]: 1.00
- EC10, PPARγ [3]: 0.961 µM
- log(1/EC10) PPARγ [3]: 0.85
- Emax [3]: 20%

Compound: Cc1ccc(S(=O)(=O)NC(=O)Nc2ccc(Cc3ccc(NC(=O)NS(=O)(=O)c4ccc(C)cc4)cc3)cc2)cc1 [BTUM, 4,4'-Bis(p-tolylsulfonylureido)diphenylmethane]
- Double negative form (pH = 7.40) [1]: 99.53%
- Negative form (pH = 7.40) [1]: 0.47%
- Neutral form (pH = 7.40) [1]: 0.0007%
- αneutral % (fraction of neutral species) [1]: 0.0007%
- pKa ([1]; second pKa column): 5.07
- pKa [1]: 4.59
- EC10, linear ([2]; MMP bioassay, dosing range all): no effect
- logEC10 ([2]; MMP bioassay, dosing range all, log-logistic model): no effect
- EC10, PPARγ (M) [3]: 2.56 × 10^–7 M
- EC10, linear [3]: 2.64E-07
- logEC10 [3]: -6.59
- SR-ScorePPARγ [3]: 1.00
- Specificity ratio (SRbaseline) SRPPARγ [3]: 110.22
- Specificity ratio (SRcytotoxicity) SRPPARγ [3]: 121.09
- EC10, PPARγ [3]: 0.256 µM
- log(1/EC10) PPARγ [3]: 0.93
- Emax [3]: 47%
- SR (PPARγ) ([3]; specificity ratio): 121

Compound: COC(=O)C(c1ccc(O)cc1)c1ccc(O)cc1 [Bz, Methyl bis(4-hydroxyphenyl)acetate]
- Double negative form (pH = 7.40) [1]: 3%
- Negative form (pH = 7.40) [1]: 26%
- Neutral form (pH = 7.40) [1]: 71%
- αneutral % (fraction of neutral species) [1]: 71%
- pKa ([1]; second pKa column): 8.34
- pKa [1]: 7.83
- EC10 ([2]; Arec32, read-out: EC10, linear): 3.72e-05 M
- EC10 [2, 5]: 5.74e-05 M
- EC10 ([2]; Arec32, read-out: logEC10): 6.46e-05 M
- log(1/EC10) MMP ([2]; input of the ToxPi score, values up to 1.00): 0.84
- EC10, linear [3]: no effect
- logEC10 [3]: no effect

Compound: O=C(OCc1ccccc1)c1ccc(O)cc1 [BzPB, Benzyl 4-hydroxybenzoate]
- Negative form (pH = 7.40) [1]: 0.599%
- Neutral form (pH = 7.40) [1]: 99%
- αneutral % (fraction of neutral species) [1]: 99%
- pKa [1]: 9.62
- EC10 ([2]; Arec32, read-out: EC10, MMP): 2.44e-05 M
- EC10 [2, 4]: 2.44e-05 M
- EC10 ([2]; Arec32, read-out: EC10, linear): 1.68e-05 M
- EC10 [2, 5]: 2.45e-05 M
- EC10 ([2]; Arec32, read-out: logEC10): 2.45e-05 M
- Specificity ratio (SRbaseline) SRMMP [2]: 1.38
- Specificity ratio (SRcytotoxicity) SRMMP [2]: 12.18
- Relative effect potency REPMMP [2]: 1.15
- SR (MMP inhibition) [2]: > 10
- EC10, PPARγ (M) [3]: 2.04 × 10^–6 M
- EC10, linear transformed [3]: 2.04E-06
- EC10, linear [3]: 2.87E-06
- logEC10 [3]: -5.69
- SR-ScorePPARγ [3]: 1.00
- Specificity ratio (SRbaseline) SRPPARγ [3]: 8.14
- Specificity ratio (SRcytotoxicity) SRPPARγ [3]: 22.95
- EC10, PPARγ [3]: 2.04 µM
- log(1/EC10) PPARγ [3]: 0.80
- Emax [3]: 16%

Compound: CC(C)Oc1ccc(S(=O)(=O)c2ccc(O)cc2)cc1 [D8, 4-((4-Isopropoxyphenyl)sulfonyl)phenol]
- Negative form (pH = 7.40) [1]: 39%
- Neutral form (pH = 7.40) [1]: 61%
- αneutral % (fraction of neutral species) [1]: 61%
- pKa [1]: 7.6
- EC10 ([2]; Arec32, read-out: EC10, MMP): 5.2e-05 M
- EC10 [2, 4]: 5.2e-05 M
- EC10 ([2]; Arec32, read-out: EC10, linear): 5.8e-05 M
- EC10 [2, 5]: 5.14e-05 M
- EC10 ([2]; Arec32, read-out: logEC10): 5.25e-05 M
- Specificity ratio (SRbaseline) SRMMP [2]: 2.47
- Specificity ratio (SRcytotoxicity) SRMMP [2]: 41.11
- Relative effect potency REPMMP [2]: 0.54
- SR (MMP inhibition) [2]: 41
- EC10, linear [3]: 5.40E-06
- logEC10 [3]: no effect

— paper PMC12392461, “Beyond Estrogenicity: A Comparative Assessment of Bisphenol A and Its Alternatives in In Vitro Assays Questions Safety of Replacements” (Environmental Science & Technology, 2025)
